Measurements reported in ChEMBL document CHEMBL1141067, “Dipyridyl amines: potent metabotropic glutamate subtype 5 receptor antagonists” (Bioorg Med Chem Lett, 2005).
Values belong to the molecule of their own block, whether it stands above or below them.

Columns and labels:
[1] = target: T1, Metabotropic glutamate receptor 5 (Homo sapiens, UniProt P41594); assay: In vitro potency against calcium flux in Ltk cells expressing human recombinant metabotropic glutamate receptor 5 using fluorescence detection; assay type: cell-based
[2] = Bioavailability (10 mg/kg, p.o.) in Sprague Dawley rats; assay type: ADME, organism-based; settings: rat, in vivo, po
[3] = Plasma clearance (2 mg/kg, i.v.) was determined in Sprague-Dawley rats; assay type: ADME, organism-based; settings: rat, iv, read-out: Clp
[4] = Half-life (2 mg/kg, i.v.) was determined in Sprague-Dawley rats; assay type: ADME, organism-based; settings: rat, in vivo, iv
[5] = system: Rattus norvegicus; assay: In vivo receptor occupancy was determined in rats following intravenous dosage at 10 mg/kg; assay type: functional
[6] = Volume of distribution (2 mg/kg, iv.) was determined in Sprague Dawley rats; not determined; assay type: ADME, organism-based; settings: rat, in vivo
[7] = target: T1, Metabotropic glutamate receptor 5; assay: In vitro potency against calcium flux in Ltk cells expressing human recombinant metabotropic glutamate receptor 5 using fluorescence detection; not active at 10 uM; assay type: cell-based
[8] = Volume of distribution (2 mg/kg, iv.) was determined in Sprague Dawley rats; assay type: ADME, organism-based; settings: rat, in vivo
[9] = Bioavailability (10 mg/kg, p.o.) was determined in Sprague Dawley rats; assay type: ADME, organism-based; settings: rat, in vivo, po

T1 sequence (P41594 whole entry): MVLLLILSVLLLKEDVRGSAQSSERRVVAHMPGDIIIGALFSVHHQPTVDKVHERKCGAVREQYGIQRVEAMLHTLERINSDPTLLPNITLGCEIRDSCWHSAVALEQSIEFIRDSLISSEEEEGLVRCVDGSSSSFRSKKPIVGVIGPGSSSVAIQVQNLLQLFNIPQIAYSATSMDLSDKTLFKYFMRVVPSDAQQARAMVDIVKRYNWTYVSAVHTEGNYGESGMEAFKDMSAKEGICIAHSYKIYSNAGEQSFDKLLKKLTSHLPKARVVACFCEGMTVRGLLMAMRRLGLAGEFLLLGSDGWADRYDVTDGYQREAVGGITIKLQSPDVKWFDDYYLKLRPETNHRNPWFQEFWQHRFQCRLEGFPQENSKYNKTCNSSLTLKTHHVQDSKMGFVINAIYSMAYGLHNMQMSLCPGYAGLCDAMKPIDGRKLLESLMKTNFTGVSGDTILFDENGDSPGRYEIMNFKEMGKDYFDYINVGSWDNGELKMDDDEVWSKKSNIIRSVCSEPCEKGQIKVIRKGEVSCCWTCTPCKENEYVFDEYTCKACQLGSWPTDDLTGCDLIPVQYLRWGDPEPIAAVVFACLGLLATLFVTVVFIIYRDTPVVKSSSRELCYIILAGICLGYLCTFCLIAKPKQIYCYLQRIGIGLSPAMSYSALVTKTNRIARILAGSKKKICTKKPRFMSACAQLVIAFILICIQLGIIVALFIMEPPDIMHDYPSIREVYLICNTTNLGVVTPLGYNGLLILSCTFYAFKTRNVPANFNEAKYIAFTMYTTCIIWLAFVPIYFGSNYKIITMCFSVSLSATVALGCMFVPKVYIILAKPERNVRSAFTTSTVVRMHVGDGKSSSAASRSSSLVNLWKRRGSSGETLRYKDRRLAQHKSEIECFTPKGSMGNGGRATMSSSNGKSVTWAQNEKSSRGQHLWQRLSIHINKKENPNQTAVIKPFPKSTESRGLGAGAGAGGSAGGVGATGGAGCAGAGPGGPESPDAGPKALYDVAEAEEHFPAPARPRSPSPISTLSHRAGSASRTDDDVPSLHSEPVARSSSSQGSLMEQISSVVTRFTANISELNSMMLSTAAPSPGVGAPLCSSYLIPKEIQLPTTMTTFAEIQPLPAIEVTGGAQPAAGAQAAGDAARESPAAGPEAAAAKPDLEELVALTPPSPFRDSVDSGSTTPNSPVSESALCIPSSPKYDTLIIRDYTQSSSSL

IC50 [1]: 12 nM
bioavailability [2]: 38%
clearance [3]: 50 mL/min/kg
half-life [4]: 1 h
Compound: CCOc1cc(-c2cccnc2)cnc1Nc1cccc(C)n1

IC50 [1]: 36 nM
bioavailability [2]: 67%
clearance [3]: 79 mL/min/kg
half-life [4]: 0.6 h
Vd [6]: 2.3 L/kg
Compound: CCOc1cc(-c2cncnc2)cnc1Nc1cccc(C)n1
Receptor occupancy [5]: 79%

IC50 [7]: Not Active
Compound: Cc1cccc(Nc2ncccc2C)n1

IC50 [1]: 138 nM
bioavailability [2]: 16%
clearance [3]: 78 mL/min/kg
half-life [4]: 0.8 h
Vd [8]: 2.9 L/kg
Compound: CCOc1cccnc1Nc1ccccn1

IC50 [1]: 1900 nM
Compound: CCOc1cccnc1Nc1cccc(C(F)(F)F)n1

IC50 [1]: 556 nM
Compound: CCOc1cccnc1Nc1cccc(OC)n1

IC50 [1]: 6200 nM
Compound: CCOc1cccnc1Nc1cccc(C(=O)OC)n1

IC50 [7]: Not Active
Compound: Cc1cccc(Nc2ncccc2O)n1

IC50 [1]: 458 nM
Compound: COc1cccnc1Nc1cccc(C)n1

IC50 [7]: Not Active
Compound: CCOc1ncccc1Nc1cccc(C)n1

IC50 [7]: Not Active
Compound: Cc1cccc(Nc2ncccc2C#N)n1

IC50 [1]: 45 nM
bioavailability [2]: 8%
clearance [3]: 105 mL/min/kg
half-life [4]: 0.7 h
Vd [6]: 4.7 L/kg
Compound: CCOc1cc(-c2cnccc2C)cnc1Nc1cccc(C)n1

IC50 [1]: 870 nM
Compound: Cc1cccc(Nc2ncccc2OCc2ccccc2)n1

IC50 [1]: 1600 nM
Compound: CCCOc1cccnc1Nc1cccc(C)n1

IC50 [7]: Not Active
Compound: Cc1cccc(Nc2ncccc2-c2ccccc2)n1

IC50 [1]: 46 nM
bioavailability [2]: 13%
clearance [3]: 90 mL/min/kg
half-life [4]: 1.6 h
Vd [8]: 7 L/kg
Compound: CCOc1cc(C#N)cnc1Nc1cccc(C)n1

IC50 [1]: 513 nM
Compound: CCOc1cc(-c2ccc(C)cc2)cnc1Nc1cccc(C)n1

IC50 [1]: 80 nM
Compound: CCOc1cc(-c2cccnc2C#N)cnc1Nc1cccc(C)n1

IC50 [1]: 119 nM
Compound: CCOc1cc(C)cnc1Nc1cccc(C)n1

IC50 [7]: Not Active
Compound: CCOc1ccc(C)nc1Nc1cccc(C)n1

IC50 [1]: 37 nM
Compound: CCOc1cc(-c2ccccc2C#N)cnc1Nc1cccc(C)n1

IC50 [1]: 790 nM
Compound: CSc1cccnc1Nc1cccc(C)n1

IC50 [7]: Not Active
Compound: COC(=O)c1cccnc1Nc1cccc(C)n1

IC50 [1]: 243 nM
Compound: CCOc1cc(-c2ccsn2)cnc1Nc1cccc(C)n1

IC50 [7]: Not Active
Compound: CCOc1ccccc1Nc1cccc(C)n1

IC50 [1]: 17 nM
Compound: CCOc1cc(Cl)cnc1Nc1cccc(C)n1

IC50 [1]: 3000 nM
Compound: CCNc1cccnc1Nc1cccc(C)n1

IC50 [1]: 394 nM
clearance [3]: 320 mL/min/kg
half-life [4]: 1 h
Compound: CCCc1cccnc1Nc1cccc(C)n1

IC50 [1]: 2700 nM
Compound: CCOc1c(C)ccnc1Nc1cccc(C)n1

IC50 [1]: 1000 nM
Compound: Cc1cccc(Nc2ncccc2OC(C)C)n1

IC50 [1]: 267 nM
Compound: CCOc1cc(-c2ccccc2)cnc1Nc1cccc(C)n1

IC50 [1]: 18 nM
clearance [3]: 52 mL/min/kg
half-life [4]: 1.2 h
Vd [6]: 3.7 L/kg
Compound: CCOc1cc(Oc2cccnc2)cnc1Nc1cccc(C)n1
Receptor occupancy [5]: 82%

IC50 [1]: 126 nM
bioavailability [2]: 19%
clearance [3]: 93 mL/min/kg
half-life [4]: 0.5 h
Vd [8]: 3 L/kg
Compound: CCOc1cc(-c2cccc(F)c2)cnc1Nc1cccc(C)n1

IC50 [1]: 47 nM
Compound: CCOc1cc(Br)cnc1Nc1cccc(C)n1

IC50 [7]: Not Active
Compound: Cc1cccc(Nc2ncccc2-c2cccnc2)n1

IC50 [1]: 193 nM
bioavailability [2]: 0%
clearance [3]: 124 mL/min/kg
half-life [4]: 1 h
Vd [8]: 6.1 L/kg
Compound: CCOc1cc(-c2ccccn2)cnc1Nc1cccc(C)n1

IC50 [1]: 497 nM
clearance [3]: 102 mL/min/kg
half-life [4]: 1 h
Compound: CCOc1nccnc1Nc1cccc(C)n1

bioavailability [9]: 11%
IC50 [1]: 40 nM
clearance [3]: 16 mL/min/kg
half-life [4]: 2.1 h
Vd [8]: 1.2 L/kg
Compound: CCOc1cccnc1Nc1cccc(C)n1

IC50 [7]: Not Active
Compound: COc1cccc(F)c1Nc1cccc(C)n1
